US20260207578A1, “COMPOUND BASED ON SULFUR/OXYGEN SUBSTITUTED GLUTARIMIDE-BASED ISOINDOLINONE SKELETON AND USE THEREOF” (Gluetacs Therapeutics (Shanghai) Co., LTD., priority 2022, published 2026)

Key:
CK1α = molecular target: T1, CK1α (Homo sapiens, UniProt P48729+Q96SW2); assay: Western-blot assay, substrate protein in hPBMCs; type: cell-based; settings: hPBMC cells, 24 hours, tested at 50 nM and 500 nM, table does not say which
T1 construct: endogenous in cells; host or cells: human PBMCs (Milecell Biotechnologies)
Description: (§1) The effect of the compounds of the present disclosure on the expression of target proteins in cells was detected using conventional Western blot analysis.
(§2) Human peripheral blood mononuclear cells (hPBMCs) at a density of 1×10^6 cells/mL were thawed according to the PBMC Recovery Protocol (Milecell Biotechnologies Inc, Shanghai).
(§3) After 24 hours of compounds treatment, cells were harvested and lysed in RIPA protein lysate containing phosphatase inhibitors on ice for 30-60 min, followed by centrifugation. The supernatant was aspirated as the extracted total cell protein. The protein concentration of the supernatant was determined using the conventional BCA (Bicinchoninic Acid) assay. The supernatant was then mixed with 4× SDS sample loading buffer, denatured at 95° C. for 5 minutes, and then subjected to SDS-PAGE electrophoresis on a polyacrylamide gel. Proteins were then transferred to a nitrocellulose (NC) membrane, blocked at room temperature for 1-2 h, and processed for antibody incubation and detection according to the manufacturer's instructions (Cell Signaling Technology).
(§4) Half-Maximal Degradation Concentration value (the drug concentration required for degrading proteins by 50%, abbreviated as DC50) reads method: comparing the grayscale values of Western blot bands from drug-treated samples with those from blank DMSO-treated controls, and identifying the drug concentration range at which the grayscale value is half that of the DMSO-treated control bands.
(§5) DC50 values can be calculated using ImageJ software to measure grayscale values of Western blot bands from drug-treated samples. The concentration-response curve is fitted to estimate the drug concentration corresponding to half the grayscale value.
(§6) Target protein remaining (%) refers to the percentage of target protein remaining in hPBMC cells after treatment with protein degrader compounds.
(§7) Calculation method for protein remaining (%): Use ImageJ software to measure grayscale values of Western blot bands from drug (protein degrader)-treated samples. The grayscale value of drug-treated bands is divided by that of internal control protein bands, and the resulting quotient is normalized to obtain the relative percentage of remaining target protein after protein degrader treatment.
(§8) Target protein degradation rate (%)=100%−target protein remaining (%).

Wee1 = molecular target: T2, Wee1 (Homo sapiens, UniProt P30291+Q96SW2); assay: Western-blot assay, substrate protein in hPBMCs; type: cell-based; settings: hPBMC cells, 24 hours, tested at 50 nM and 500 nM, table does not say which
T2 construct: endogenous in cells; host or cells: human PBMCs (Milecell Biotechnologies)
Description: as §1, §2, §3, §4, §5, §6, §7, §8

GSPT1 = molecular target: T3, GSPT1 (Homo sapiens, UniProt P15170+Q96SW2); assay: Western-blot assay, substrate protein in hPBMCs; type: cell-based; settings: hPBMC cells, 24 hours, tested at 50 nM and 500 nM, table does not say which
T3 construct: endogenous in cells; host or cells: human PBMCs (Milecell Biotechnologies)
Description: as §1, §2, §3, §4, §5, §6, §7, §8

[1] = molecular target: T4, human Cereblon WT GST-tagged protein (Homo sapiens, UniProt Q96SW2); assay: CRBN-binding affinity, HTRF (CEREBLON BINDING kit); settings: displacement of Thalidomide-Re reagent, 3 hours at room temperature
T4 construct: purchased CISBIO 64BDCRBNPEH
Description: The CEREBLON BINDING kits (specification: 10,000 tests; product number: Catalog #64BDCRBNPEH; CISBIO company) was used to determine the CRBN binding ability of the compounds to be tested through a HTRF method (homogeneous time-resolved fluorescence). The specific methods are as follows: • 1. […] Then, 2.5 μL of human Cereblon WT GST-tagged protein solution was added to each well. Finally, 5 μL of the thoroughly mixed Thalidomide-Re reagent and GST Eu antibody working solution were added to each of the aforementioned wells. […] The blank control wells were sequentially added with 2.5 μL of diluent #9 (1×) solution, 2.5 μL of PROTAC binding buffer, and 5 μL of thoroughly mixed Thalidomide-Re reagent and GST Eu antibody working solution. • 4.
OD 620 nmcompound is the absorbance value of each well of the compounds to be tested of the present disclosure at an emission wavelength of 620 nm. […] OD 620 nmcontrol is the absorbance value of the blank control well at an emission wavelength of 620 nm. […] OD 620 nmStd0 is the absorbance value of the solvent control well at an emission wavelength of 620 nm.

IKZF2 = molecular target: T5, IKZF2 (Homo sapiens, UniProt Q96SW2+Q9UKS7); assay: Western-blot assay, substrate protein in hPBMCs; type: cell-based; settings: hPBMC cells, 24 hours, tested at 50 nM and 500 nM, table does not say which
T5 construct: endogenous in cells; host or cells: human PBMCs (Milecell Biotechnologies)
Description: as §1, §2, §3, §4, §5, §6, §7, §8

T2 sequence (P30291 whole entry): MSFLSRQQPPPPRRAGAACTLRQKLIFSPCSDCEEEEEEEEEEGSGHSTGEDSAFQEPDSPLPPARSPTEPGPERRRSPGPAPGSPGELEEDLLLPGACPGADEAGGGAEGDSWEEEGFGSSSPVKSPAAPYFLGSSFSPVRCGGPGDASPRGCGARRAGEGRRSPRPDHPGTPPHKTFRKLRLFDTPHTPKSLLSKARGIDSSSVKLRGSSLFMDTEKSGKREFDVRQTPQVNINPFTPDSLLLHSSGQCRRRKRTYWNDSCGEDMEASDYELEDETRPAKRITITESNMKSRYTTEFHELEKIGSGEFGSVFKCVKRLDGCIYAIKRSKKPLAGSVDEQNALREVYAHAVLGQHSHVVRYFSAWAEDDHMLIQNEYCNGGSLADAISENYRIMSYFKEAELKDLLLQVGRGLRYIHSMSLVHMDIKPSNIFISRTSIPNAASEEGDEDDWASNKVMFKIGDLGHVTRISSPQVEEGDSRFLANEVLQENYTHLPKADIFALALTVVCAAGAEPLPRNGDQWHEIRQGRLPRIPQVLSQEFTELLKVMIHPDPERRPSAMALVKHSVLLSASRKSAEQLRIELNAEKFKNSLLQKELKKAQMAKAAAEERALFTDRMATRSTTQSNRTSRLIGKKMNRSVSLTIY
T2 sequence (Q96SW2 whole entry): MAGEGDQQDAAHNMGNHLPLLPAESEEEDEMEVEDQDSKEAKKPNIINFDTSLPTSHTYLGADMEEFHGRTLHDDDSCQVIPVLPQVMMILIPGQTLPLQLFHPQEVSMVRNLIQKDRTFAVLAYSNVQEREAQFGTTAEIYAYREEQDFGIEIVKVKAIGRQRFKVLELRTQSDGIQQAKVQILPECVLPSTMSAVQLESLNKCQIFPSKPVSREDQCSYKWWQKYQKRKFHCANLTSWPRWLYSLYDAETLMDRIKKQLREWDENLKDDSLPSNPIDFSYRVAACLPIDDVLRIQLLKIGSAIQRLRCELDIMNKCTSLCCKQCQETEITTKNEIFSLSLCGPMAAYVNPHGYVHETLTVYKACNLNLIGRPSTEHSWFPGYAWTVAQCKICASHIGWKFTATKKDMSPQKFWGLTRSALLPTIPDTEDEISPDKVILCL
T2 sequence (Q16531 whole entry partner): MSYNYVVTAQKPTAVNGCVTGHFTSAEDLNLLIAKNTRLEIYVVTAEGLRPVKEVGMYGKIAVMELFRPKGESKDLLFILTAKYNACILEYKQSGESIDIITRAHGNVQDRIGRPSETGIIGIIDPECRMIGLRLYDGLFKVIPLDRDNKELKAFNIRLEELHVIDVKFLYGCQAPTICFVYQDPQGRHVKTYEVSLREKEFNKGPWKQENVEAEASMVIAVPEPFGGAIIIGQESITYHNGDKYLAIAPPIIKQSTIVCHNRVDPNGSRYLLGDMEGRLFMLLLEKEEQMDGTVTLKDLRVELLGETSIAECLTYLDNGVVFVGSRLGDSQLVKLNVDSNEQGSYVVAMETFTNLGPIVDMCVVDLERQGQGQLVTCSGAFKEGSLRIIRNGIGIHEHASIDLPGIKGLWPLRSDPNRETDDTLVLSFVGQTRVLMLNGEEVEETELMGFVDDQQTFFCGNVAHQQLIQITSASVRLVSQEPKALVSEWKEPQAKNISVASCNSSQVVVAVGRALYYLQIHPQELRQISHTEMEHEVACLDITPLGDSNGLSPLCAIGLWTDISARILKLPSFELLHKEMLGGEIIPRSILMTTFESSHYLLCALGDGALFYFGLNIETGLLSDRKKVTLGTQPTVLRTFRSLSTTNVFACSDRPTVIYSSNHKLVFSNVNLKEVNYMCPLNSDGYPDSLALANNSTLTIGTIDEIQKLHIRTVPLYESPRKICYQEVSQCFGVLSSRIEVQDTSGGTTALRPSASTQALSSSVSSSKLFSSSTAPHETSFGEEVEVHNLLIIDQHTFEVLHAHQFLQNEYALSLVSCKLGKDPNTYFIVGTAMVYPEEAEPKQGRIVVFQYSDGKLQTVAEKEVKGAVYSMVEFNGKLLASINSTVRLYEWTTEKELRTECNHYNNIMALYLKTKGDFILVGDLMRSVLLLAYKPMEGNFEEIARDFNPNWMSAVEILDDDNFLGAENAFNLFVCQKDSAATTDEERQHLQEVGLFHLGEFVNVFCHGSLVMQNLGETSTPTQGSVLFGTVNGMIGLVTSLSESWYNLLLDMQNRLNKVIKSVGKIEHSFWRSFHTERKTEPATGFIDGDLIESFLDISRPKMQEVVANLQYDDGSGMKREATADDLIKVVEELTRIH
T4 sequence (Q96SW2 whole entry): as the sequence (Q96SW2 whole entry) above
T1 sequence (P48729 whole entry): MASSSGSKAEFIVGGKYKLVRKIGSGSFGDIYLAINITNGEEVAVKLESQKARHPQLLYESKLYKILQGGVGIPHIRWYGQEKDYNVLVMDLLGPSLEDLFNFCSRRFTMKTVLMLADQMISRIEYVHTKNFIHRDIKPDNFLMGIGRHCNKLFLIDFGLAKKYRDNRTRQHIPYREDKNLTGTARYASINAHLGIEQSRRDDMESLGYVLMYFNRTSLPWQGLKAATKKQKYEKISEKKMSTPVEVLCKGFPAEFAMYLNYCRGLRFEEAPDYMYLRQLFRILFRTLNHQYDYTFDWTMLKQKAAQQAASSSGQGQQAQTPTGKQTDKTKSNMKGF
T1 sequence (Q96SW2 whole entry): as the sequence (Q96SW2 whole entry) above
T1 sequence (Q16531 whole entry partner): as the sequence (Q16531 whole entry partner) above
T3 sequence (P15170 whole entry): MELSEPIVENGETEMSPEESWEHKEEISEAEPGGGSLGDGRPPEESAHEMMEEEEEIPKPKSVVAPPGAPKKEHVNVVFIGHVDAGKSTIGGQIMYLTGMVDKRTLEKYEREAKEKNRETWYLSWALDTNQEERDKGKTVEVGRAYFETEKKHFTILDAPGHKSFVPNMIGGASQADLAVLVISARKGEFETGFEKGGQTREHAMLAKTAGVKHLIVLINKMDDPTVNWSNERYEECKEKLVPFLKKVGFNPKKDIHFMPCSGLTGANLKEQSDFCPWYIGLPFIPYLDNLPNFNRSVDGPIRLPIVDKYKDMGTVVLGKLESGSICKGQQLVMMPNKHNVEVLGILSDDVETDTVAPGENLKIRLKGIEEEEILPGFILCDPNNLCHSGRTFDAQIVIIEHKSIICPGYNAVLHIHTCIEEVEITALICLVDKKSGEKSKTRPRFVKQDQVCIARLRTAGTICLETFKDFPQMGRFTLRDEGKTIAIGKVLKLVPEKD
T3 sequence (Q96SW2 whole entry): as the sequence (Q96SW2 whole entry) above
T3 sequence (Q16531 whole entry partner): as the sequence (Q16531 whole entry partner) above
T5 sequence (Q9UKS7 whole entry): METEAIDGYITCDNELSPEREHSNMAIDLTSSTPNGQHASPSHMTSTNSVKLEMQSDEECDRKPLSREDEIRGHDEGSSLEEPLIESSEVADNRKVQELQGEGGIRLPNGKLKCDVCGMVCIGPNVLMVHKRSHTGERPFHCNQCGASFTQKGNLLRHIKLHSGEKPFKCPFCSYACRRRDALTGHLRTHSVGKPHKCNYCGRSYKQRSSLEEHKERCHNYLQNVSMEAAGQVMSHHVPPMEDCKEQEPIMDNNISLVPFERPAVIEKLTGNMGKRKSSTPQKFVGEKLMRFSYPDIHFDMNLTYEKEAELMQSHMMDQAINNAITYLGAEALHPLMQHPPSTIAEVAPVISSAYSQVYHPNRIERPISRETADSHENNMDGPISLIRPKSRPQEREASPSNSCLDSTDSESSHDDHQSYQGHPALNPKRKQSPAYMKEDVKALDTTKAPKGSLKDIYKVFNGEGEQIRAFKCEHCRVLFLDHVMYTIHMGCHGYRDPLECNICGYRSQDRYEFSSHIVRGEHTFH
T5 sequence (Q96SW2 whole entry): as the sequence (Q96SW2 whole entry) above
T5 sequence (Q16531 whole entry partner): as the sequence (Q16531 whole entry partner) above

SMILES	substrate protein remaining % (CK1α)	substrate protein remaining % (Wee1)	substrate protein remaining % (GSPT1)	IC50 [1] [nM]	substrate protein remaining % (IKZF2)
O=C1CCC(N2Cc3cc(OC4CN(Cc5ccc(-c6ccc(Cl)cc6)cc5)C4)ccc3C2=O)C(=O)N1 (stereo not shown) [GT-06230, 3-(5-((1-((4′-chloro-[1,1′-biphenyl]-4-yl)methyl)azetidin-3-yl)oxy)-1-oxoisoindolin-2-yl)piperidine-2,6-dione]	A (0%≤ substrate protein remaining % ≤80%)	A (0%≤ substrate protein remaining % ≤80%)	A (0%≤ substrate protein remaining % ≤80%)	500 to 1000	
O=C1CCC(N2Cc3cc(OC4CC5CN(Cc6ccccc6-c6ccc(Cl)cc6)CC5C4)ccc3C2=O)C(=O)N1 (stereo not shown) [GT-06953, 3-(5-((2-((4′-chloro-[1,1′-biphenyl]-2-yl)methyl)octahydrocyclopenta [c]pyrrol-5-yl)oxy)-1-oxoisoindolin-2-yl)piperidine-2,6-dione]	A (0%≤ substrate protein remaining % ≤80%)	A (0%≤ substrate protein remaining % ≤80%)		< 500	
O=C1CCC(N2Cc3cc(OC4CN(Cc5cccc(-c6ccc(Cl)cc6)c5)C4)ccc3C2=O)C(=O)N1 (stereo not shown) [GT-06227, 3-(5-((1-((4′-chloro-[1,1′-biphenyl]-3-yl)methyl)azetidin-3-yl)oxy)-1-oxoisoindolin-2-yl)piperidine-2,6-dione]	A (0%≤ substrate protein remaining % ≤80%)	A (0%≤ substrate protein remaining % ≤80%)	A (0%≤ substrate protein remaining % ≤80%)		
CC1(C)CCC(CN2CCC(Oc3ccc4c(c3)CN(C3CCC(=O)NC3=O)C4=O)CC2)=C(c2ccc(Cl)cc2)C1 (stereo not shown) [GT-07061, 3-(5-((1-((4′-chloro-5,5-dimethyl-3,4,5,6-tetrahydro-[1,1′-biphenyl]-2-yl)methyl)piperidin-4-yl)oxy)-1-oxoisoindolin-2-yl)piperidine-2,6-dione]	A (0%≤ substrate protein remaining % ≤80%)				
COC1(C)CCC(c2ccc(Cl)cc2)=C(CN2CC(Sc3ccc4c(c3)CN(C3CCC(=O)NC3=O)C4=O)C2)C1 (stereo not shown) [GT-07064, 3-(5-((1-((4′-chloro-4-methoxy-4-methyl-3,4,5,6-tetrahydro-[1,1′-biphenyl]-2-yl)methyl)azetidin-3-yl)thio)-1-oxoisoindolin-2-yl)piperidine-2,6-dione]	A (0%≤ substrate protein remaining % ≤80%)				
O=C1CCC(N2Cc3cc(OC4CCN(Cc5cccc(-c6ccc(Cl)cc6)c5)CC4)ccc3C2=O)C(=O)N1 (stereo not shown) [GT-06228, 3-(5-((1-((4′-chloro-[1,1′-biphenyl]-3-yl)methyl)piperidin-4-yl)oxy)-1-oxoisoindolin-2-yl)piperidine-2,6-dione]	A (0%≤ substrate protein remaining % ≤80%)	A (0%≤ substrate protein remaining % ≤80%)	A (0%≤ substrate protein remaining % ≤80%)		
O=C1CCC(N2Cc3cc(SC4CCCNCC4)ccc3C2=O)C(=O)N1 (stereo not shown) [GT-06995, 3-(5-(azepan-4-ylthio)-1-oxoisoindolin-2-yl)piperidine-2,6-dione]	A (0%≤ substrate protein remaining % ≤80%)			1000 to 1900	
O=C1CCC(N2Cc3cc(OC4CC5(CCNCC5)C4)ccc3C2=O)C(=O)N1 (stereo not shown) [GT-07005, 3-(5-((7-azaspiro[3.5]nonan-2-yl)oxy)-1-oxoisoindolin-2-yl)piperidine-2,6-dione]				1000 to 1900	A (0%≤ substrate protein remaining % ≤80%)
CC1(C)CCC(CN2CC(Oc3cccc4c3C(=O)N(C3CCC(=O)NC3=O)C4)C2)=C(c2ccc(Cl)cc2)C1 (stereo not shown) [GT-07063]	A (0%≤ substrate protein remaining % ≤80%)				
CC1(C)CCC(C(=O)N2CCC(Sc3ccc4c(c3)CN(C3CCC(=O)NC3=O)C4=O)CC2)=C(c2ccc(Cl)cc2)C1 (stereo not shown) [GT-06140, 3-(5-((1-(4′-chloro-5,5-dimethyl-3,4,5,6-tetrahydro-[1,1′-biphenyl]-2-carbonyl)piperidin-4-yl)thio)-1-oxoisoindolin-2-yl)piperidine-2,6-dione]		A (0%≤ substrate protein remaining % ≤80%)		500 to 1000	
CC1(C)CCC(CN2CCC(Oc3ccc4c(c3)CN(C3CCC(=O)NC3=O)C4=O)CC2)=C(c2ccc(F)cc2)C1 (stereo not shown) [GT-07062, 3-(5-((1-((4′-fluoro-5,5-dimethyl-3,4,5,6-tetrahydro-[1,1′-biphenyl]-2-yl)methyl)piperidin-4-yl)oxy)-1-oxoisoindolin-2-yl)piperidine-2,6-dione]	A (0%≤ substrate protein remaining % ≤80%)				
CC1(C)CCC(CN2CCCC(Sc3ccc4c(c3)CN(C3CCC(=O)NC3=O)C4=O)CC2)=C(c2ccc(Cl)cc2)C1 (stereo not shown) [GT-06641, 3-(5-((1-((4′-chloro-5,5-dimethyl-3,4,5,6-tetrahydro-[1,1′-biphenyl]-2-yl)methyl)azepan-4-yl)thio)-1-oxoisoindolin-2-yl)piperidine-2,6-dione]				1000 to 1900	A (0%≤ substrate protein remaining % ≤80%)
O=C1CCC(N2Cc3cc(SC4CN(C(c5ccccc5)c5ccccc5)C4)ccc3C2=O)C(=O)N1 (stereo not shown) [GT-06138, 3-(5-((1-benzhydrylazetidin-3-yl)thio)-1-oxoisoindolin-2-yl)piperidine-2,6-dione]		A (0%≤ substrate protein remaining % ≤80%)	A (0%≤ substrate protein remaining % ≤80%)	500 to 1000	
O=C1CCC(N2Cc3cc(OC4CN(C(c5ccc(F)cc5)c5ccc(F)cc5)C4)ccc3C2=O)C(=O)N1 (stereo not shown) [GT-06519, 3-(5-((1-(bis(4-fluorophenyl)methyl)azetidin-3-yl)oxy)-1-oxoisoindolin-2-yl)piperidine-2,6-dione]	A (0%≤ substrate protein remaining % ≤80%)			500 to 1000	
CC1(C)CCC(C(=O)N2CCC3(CC2)CC(Oc2ccc4c(c2)CN(C2CCC(=O)NC2=O)C4=O)C3)=C(c2ccc(Cl)cc2)C1 (stereo not shown) [GT-07020, 3-(5-((7-(4′-chloro-5,5-dimethyl-3,4,5,6-tetrahydro-[1,1′-biphenyl]-2-carbonyl)-7-azaspiro[3.5]nonan-2-yl)oxy)-1-oxoisoindolin-2-yl)piperidine-2,6-dione]		A (0%≤ substrate protein remaining % ≤80%)	A (0%≤ substrate protein remaining % ≤80%)	500 to 1000	
O=C1CCC(N2Cc3cc(OC4CCN(C(=O)c5ccccc5-c5ccc(Cl)cc5)C4)ccc3C2=O)C(=O)N1 (stereo not shown) [GT-06818, 3-(5-((1-(4′-chloro-[1,1′-biphenyl]-2-carbonyl)pyrrolidin-3-yl)oxy)-1-oxoisoindolin-2-yl)piperidine-2,6-dione]	A (0%≤ substrate protein remaining % ≤80%)	A (0%≤ substrate protein remaining % ≤80%)	A (0%≤ substrate protein remaining % ≤80%)	< 500	
COC1(C)CCC(c2ccc(Cl)cc2)=C(CN2CC(Oc3ccc4c(c3)CN(C3CCC(=O)NC3=O)C4=O)C2)C1 (stereo not shown) [GT-07065, 3-(5-((1-((4′-chloro-4-methoxy-4-methyl-3,4,5,6-tetrahydro-[1,1′-biphenyl]-2-yl)methyl)azetidin-3-yl)oxy)-1-oxoisoindolin-2-yl)piperidine-2,6-dione]	A (0%≤ substrate protein remaining % ≤80%)				
O=C1CCC(N2Cc3cc(OC4CN(CC5=C(c6ccc(Cl)cc6)CCC(F)(F)C5)C4)ccc3C2=O)C(=O)N1 (stereo not shown) [GT-06563, 3-(5-((1-((4′-chloro-4,4-difluoro-3,4,5,6-tetrahydro-[1,1′-biphenyl]-2-yl)methyl)azetidin-3-yl)oxy)-1-oxoisoindolin-2-yl)piperidine-2,6-dione]		A (0%≤ substrate protein remaining % ≤80%)		500 to 1000	
